Laboratory results: US6906198B1, “Antipicornaviral compounds, their preparation and use” (Agouron Pharmaceuticals, Inc., priority 1998, dated 2005)
Read-outs that look alike come from different tables or passages of the source.

Columns and labels:
[1] = Cytotoxicity in mock-infected H1-HeLa cells (antirhinoviral assay, XTT); format: cell-based; settings: human, 50% cytotoxic dose
Procedure: (§1) H1-HeLa cells were infected with HRV-14 at a multiplicity of infection (m.o.i.) of 0.13 (virus particles/cell) or mock-infected with medium only. Infected or mock-infected cells were resuspended at 8×10^5 cells per mL, and incubated with appropriate concentrations of the compounds to be tested. Two days later, XTT/PMS was added to test plates and the amount of formazan produced was quantified spectrophotometrically at 450/650 nm. The EC50 value was calculated as the concentration of compound that increased the percentage of formazan production in compound-treated, virus-infected cells to 50% of that produced by compound-free, mock-infected cells. The 50% cytotoxic dose (CC50) was calculated as the concentration of compound that decreased the percentage of formazan produced in compound-treated, mock-infected cells to 50% of that produced by compound-free, mock-infected cells. The therapeutic index (TI) was calculated by dividing the CC50 value by the EC50 value.
(§2) All strains of human rhinovirus (HRV) for use in this assay were purchased from American Type Culture Collection (ATCC), except for HRV serotype-14 (produced from the infectious cDNA clone constructed by Dr. Robert Rueckert, Institute for Molecular Virology, University of Wisconsin, Madison, Wis.). HRV stocks were propagated and viral assays were performed in H1-HeLa cells (ATCC). Cells were grown in minimal essential medium with 10% fetal bovine serum, available from Life Technologies (Gaithersburg, Md.).

[2] = Cytotoxicity in uninfected MRC-5 cells (anti-echoviral/-enteroviral assay, XTT); format: cell-based; settings: human, 50% cytotoxic dose
Procedure: (§3) Echovirus type 11 (EV 11) and enterovirus type 70 (EV 70) were purchased from ATCC (Rockville, Md.). Virus stocks were propagated and antiviral assays were performed in MRC-5 cells (ATCC). Cells were grown in minimal essential medium with 10% fetal bovine serum (Life Technologies, Gaithersburg, Md.).
(§4) The ability of compounds to protect cells against either EV 11 or EV 70 infection was measured by the XTT dye reduction method (Weislow et al., J. Natl. Cancer Inst. 1989, vol. 81, 577-586). MRC-5 cells were infected with EV 11 or EV 70 at an m.o.i. of 0.003 or 0.004, respectively, or mock-infected with medium only. Infected or uninfected cells were added at 1×10^4 cells per well and incubated with appropriate concentrations of compound. Four days later, XTT/PMS was added to test plates, and the amount of formazan produced was quantified spectrophotometrically at 450/650 nm. The EC50 was calculated as the concentration of compound that increased the formazan production in compound-treated, virus-infected cells to 50% of that produced by compound-free, uninfected cells. The 50% cytotoxic dose (CC50) was calculated as the concentration of compound that decreased formazan production in compound-treated, uninfected cells to 50% of that produced in compound-free, uninfected cells. The therapeutic index (TI) was calculated by dividing the CC50 by the EC50.

[3] = Cytotoxicity in uninfected H1-HeLa cells (anticoxsackieviral assay, XTT); format: cell-based; settings: human; 50% cytotoxic dose, uninfected H1-HeLa cells (Table 4)
Procedure: (§5) Coxsackievirus types A-21 (CAV-21) and B3 (CVB-3) were purchased from American Type Culture Collection (ATCC, Rockville, Md.). Virus stocks were propagated and antiviral assays were performed in H1-HeLa cells (ATCC). Cells were grown in minimal essential medium with 10% fetal bovine serum (Life Technologies, Gaithersburg, Md.).
(§6) The ability of compounds to protect cells against either CAV-21 or CVB-3 infection was measured by the XTT dye reduction method. This method is described in Weislow et al., J. Natl. Cancer Inst. 1989, vol. 81, 577-586. H1-HeLa cells were infected with CAV-21 or CVB-3 at a multiplicity of infection (m.o.i.) of 0.025 or 0.075, respectively, or mock-infected with medium only. H1-HeLa cells were plated at 4×10^4 cells per well in a 96-well plate and incubated with appropriate concentrations of the test compound. One day (CVB-3) or two days (CAV-21) later, XTT/PMS was added to test plates and the amount of formazan produced was quantified spectrophotometrically at 450/650 nm. The EC50 was calculated as the concentration of compound that increased the formazan production in compound-treated, virus-infected cells to 50% of that produced by compound-free, uninfected cells. The 50% cytotoxic dose (CC50) was calculated as the concentration of compound that decreased formazan production in compound-treated, uninfected cells to 50% of that produced in compound-free, uninfected cells. The therapeutic index (TI) was calculated by dividing the CC50 by the EC50.

[4] = test system: H1-HeLa cells; test: Cytotoxicity in mock-infected H1-HeLa cells (antirhinoviral assay, XTT); format: cell-based; settings: 50% cytotoxic dose
Procedure: as §1, §2

[5] = test system: Coxsackievirus type A-21 (CAV-21); test: Anticoxsackieviral cell culture assay (XTT), CAV-21; format: cell-based
Procedure: (§7) Anticoxsackieviral Cell Culture Assay
as §5
as §6, with “The 50% cytotoxic dose (CC50) was calculated as the concentration of compound that decreased formazan production in compound-treated, uninfected cells to 50% of that produced in compound-free, uninfected cells.” left out, “EC50. […]” for “EC50.”

[6] = test system: Coxsackievirus type B3 (CVB-3); test: Anticoxsackieviral cell culture assay (XTT), CVB-3; format: cell-based
Procedure: as §7, §5
as §6, with “The 50% cytotoxic dose (CC50) was calculated as the concentration of compound that decreased formazan production in compound-treated, uninfected cells to 50% of that produced in compound-free, uninfected cells.” left out, “EC50. […]” for “EC50.”

[7] = test system: HRV-14; test: Antirhinoviral H1-HeLa cell culture assay (XTT), HRV-14; format: cell-based, human rhinovirus
Procedure: (§8) Antirhinoviral H1-HeLa Cell Culture Assay
(§9) In this cell protection assay, the ability of compounds to protect cells against HRV infection was measured by the XTT dye reduction method, which is described in Weislow et al., J. Natl. Cancer Inst. 1989, vol. 81, 577-586.
as §1, §2
The compounds were tested against control compounds WIN 51711, WIN 52084, and WIN 54954 (obtained from Sterling-Winthrop Pharmaceuticals), Pirodavir (obtained from Janssen Pharmaceuticals), and Pleconaril (prepared according to the method described in Diana et al., J. Med. Chem 1995, vol. 38, 1355). Antiviral data obtained for the test compounds are shown in Tables 1 and 3, where all data are for HRV serotype-14 unless otherwise noted in parentheses.

[8] = test system: H1-HeLa cells; test: Cytotoxicity in uninfected H1-HeLa cells (anticoxsackieviral assay, XTT); format: cell-based; settings: 50% cytotoxic dose, uninfected H1-HeLa cells (Table 4)
Procedure: as §5, §6

[9] = test system: HRV serotype 39; test: Antirhinoviral H1-HeLa cell culture assay (XTT), HRV-39; format: cell-based; settings: Human rhinovirus sp., H1-HeLa cells
Procedure: as §8, §9
as §1, with “value. […]” for “value.”

[10] = test system: HRV serotype 89; test: Antirhinoviral H1-HeLa cell culture assay (XTT), HRV-89; format: cell-based; settings: Human rhinovirus sp., H1-HeLa cells
Procedure: as §8, §9
as §1, with “value. […]” for “value.”

[11] = test system: HRV serotype 16; test: Antirhinoviral H1-HeLa cell culture assay (XTT), HRV-16; format: cell-based; settings: Human rhinovirus sp., H1-HeLa cells
Procedure: as §8, §9
as §1, with “value. […]” for “value.”

[12] = test system: HRV serotype 30; test: Antirhinoviral H1-HeLa cell culture assay (XTT), HRV-30; format: cell-based; settings: Human rhinovirus sp., H1-HeLa cells
Procedure: as §8, §9
as §1, with “value. […]” for “value.”

[13] = test system: HRV serotype 2; test: Antirhinoviral H1-HeLa cell culture assay (XTT), HRV-2; format: cell-based; settings: Human rhinovirus sp., H1-HeLa cells
Procedure: as §8, §9
as §1, with “value. […]” for “value.”

[14] = test system: HRV serotype 3; test: Antirhinoviral H1-HeLa cell culture assay (XTT), HRV-3; format: cell-based; settings: Human rhinovirus sp., H1-HeLa cells
Procedure: as §8, §9
as §1, with “value. […]” for “value.”

[15] = test system: HRV serotype 1A; test: Antirhinoviral H1-HeLa cell culture assay (XTT), HRV-1A; format: cell-based, human rhinovirus; settings: Human rhinovirus sp., H1-HeLa cells
Procedure: as §8, §9, §1, §2
(§10) The compounds were tested against control compounds WIN 51711, WIN 52084, and WIN 54954 (obtained from Sterling-Winthrop Pharmaceuticals), Pirodavir (obtained from Janssen Pharmaceuticals), and Pleconaril (prepared according to the method described in Diana et al., J. Med. Chem 1995, vol. 38, 1355). […]

[16] = test system: HRV serotype 17; test: Antirhinoviral H1-HeLa cell culture assay (XTT), HRV-17; format: cell-based; settings: Human rhinovirus sp., H1-HeLa cells
Procedure: as §8, §9
as §1, with “value. […]” for “value.”

[17] = test system: HRV serotype 38; test: Antirhinoviral H1-HeLa cell culture assay (XTT), HRV-38; format: cell-based; settings: Human rhinovirus sp., H1-HeLa cells
Procedure: as §8, §9
as §1, with “value. […]” for “value.”

[18] = test system: HRV serotype 87; test: Antirhinoviral H1-HeLa cell culture assay (XTT), HRV-87; format: cell-based; settings: Human rhinovirus sp., H1-HeLa cells
Procedure: as §8, §9
as §1, with “value. […]” for “value.”

[19] = test system: HRV serotype 13; test: Antirhinoviral H1-HeLa cell culture assay (XTT), HRV-13; format: cell-based; settings: Human rhinovirus sp., H1-HeLa cells
Procedure: as §8, §9
as §1, with “value. […]” for “value.”

[20] = test system: HRV serotype 25; test: Antirhinoviral H1-HeLa cell culture assay (XTT), HRV-25; format: cell-based; settings: Human rhinovirus sp., H1-HeLa cells
Procedure: as §8, §9
as §1, with “value. […]” for “value.”

[21] = test system: Echovirus type 11 (EV 11); test: Anti-echoviral cell culture assay (XTT), EV 11; format: cell-based; settings: Enterovirus B, MRC5
Procedure: (§11) Anti-Echoviral and -Enteroviral Cell Culture Assays
as §3
as §4, with “The 50% cytotoxic dose (CC50) was calculated as the concentration of compound that decreased formazan production in compound-treated, uninfected cells to 50% of that produced in compound-free, uninfected cells.” left out, “EC50. […]” for “EC50.”

[22] = test system: HRV serotype 12; test: Antirhinoviral H1-HeLa cell culture assay (XTT), HRV-12; format: cell-based; settings: Human rhinovirus sp., H1-HeLa cells
Procedure: as §8, §9
as §1, with “value. […]” for “value.”

[23] = test system: HRV serotype 9; test: Antirhinoviral H1-HeLa cell culture assay (XTT), HRV-9; format: cell-based; settings: Human rhinovirus sp., H1-HeLa cells
Procedure: as §8, §9
as §1, with “value. […]” for “value.”

[24] = test system: enterovirus type 70 (EV 70); test: Anti-enteroviral cell culture assay (XTT), EV 70; format: cell-based; settings: Enterovirus D, MRC5
Procedure: as §11, §3
as §4, with “The 50% cytotoxic dose (CC50) was calculated as the concentration of compound that decreased formazan production in compound-treated, uninfected cells to 50% of that produced in compound-free, uninfected cells.” left out, “EC50. […]” for “EC50.”

[25] = test system: HRV serotype 10; test: Antirhinoviral H1-HeLa cell culture assay (XTT), HRV-10; format: cell-based, human rhinovirus; settings: Human rhinovirus sp., H1-HeLa cells
Procedure: as §8, §9, §1, §2, §10

[26] = HRV serotype-14, H1-HeLa cells (Table 3), read-out: EC50

Structure (SMILES): CCOC(=O)/C=C/[C@H](C[C@@H]1CCNC1=O)NC(=O)[C@@H](CC(=O)[C@@H](NC(=O)c1cc(C)on1)C(C)C)Cc1ccc(F)cc1 [(B-2), Ethyl-3-{(5′-Methylisoxazole-3′-carbonyl)-L-ValΨ(COCH2)-L-(4-F-Phe)-L-((S)-Pyrrol-Ala)}-E-Propenoate]
- CC50 at 2 days [1]: > 100000 nM
- CC50 at 4 days [2]: > 100000 nM
- CC50 [3]: > 100000 nM

Structure (SMILES): Cc1cc(CCCCCOc2c(Cl)cc(C3=NCCO3)cc2Cl)on1 [WIN 54954, reference compound]
- CC50 [4]: > 63000 nM
- EC50 ([5]; CAV-21, H1-HeLa cells, read-out: EC50): > 100000 nM
- EC50 ([6]; CVB-3, H1-HeLa cells, read-out: EC50): > 100000 nM
- EC50 [7, 26]: 2130 nM
- CC50 [8]: > 100000 nM

Structure (SMILES): Cc1cc(CCCOc2c(C)cc(-c3noc(C(F)(F)F)n3)cc2C)on1 [Pleconaril, reference compound]
- CC50 at 2 days [1]: > 10000 nM
- CC50 at 4 days [2]: > 10000 nM
- CC50 [3]: > 10000 nM

Structure (SMILES): Cc1cc(CCCCCCCOc2ccc(C3=NCCO3)cc2)on1 [WIN 51711, reference compound]
- CC50 [4]: > 60000 nM
- EC50 [7, 26]: 780 nM

Structure (SMILES): CCOC(=O)/C=C/[C@H](C[C@@H]1CCNC1=O)NC(=O)[C@H](Cc1ccc(F)cc1)NC(=O)[C@@H](NC(=O)c1cc(C)on1)C(C)C [(A-5), Ethyl-3-{(5′-Methylisoxazole-3′-carbonyl)-L-Val-L-(4-F-Phe)-L-((S)-Pyrrol-Ala)}-E-Propenoate]
- EC50 [9]: 20 nM
- EC50 [10]: 20 nM
- EC50 [11]: 20 nM
- melting point: 219 to 220 °C
- CC50 at 2 days [1]: > 10000 nM
- EC50 ([5]; Coxsackievirus, H1-HeLa): 230 nM
- EC50 [12]: 60 nM
- EC50 [13]: 10 nM
- EC50 [14]: 50 nM
- EC50 [15]: 30 nM
- EC50 ([6]; Coxsackievirus, H1-HeLa): 1000 nM
- CC50 at 4 days [2]: > 10000 nM
- EC50 [16]: 20 nM
- EC50 ([7]; Rhinovirus B, HRV14, HRV serotype-14, H1-HeLa cells (Table 1), read-out: Cell Protection EC50): 5 nM
- EC50 ([7]; Rhinovirus B, HRV14, HRV serotype-14, H1-HeLa cells (Table 3), read-out: EC50): 5 nM
- EC50 [17]: 130 nM
- EC50 [18]: 210 nM
- EC50 [19]: 20 nM
- EC50 [20]: 180 nM
- EC50 [21]: 80 nM
- EC50 [22]: 60 nM
- EC50 [23]: 40 nM
- EC50 [24]: 40 nM
- EC50 [25]: 50 nM
- CC50 [3]: > 10000 nM
